Measured values taken from patent publication US20120302573A1, “METHODS OF INHIBITING PRO MATRIX METALLOPROTEINASE ACTIVATION” (priority 2011, published 2012).
Counter-ions that a name gives are not always drawn.

What was measured:
[1] = biological target: T1, proMMP13(1-268) (SEQ ID NO:7) (Homo sapiens, UniProt P45452); assay: ThermoFluor binding assay with proMMP13(1-268)
T1 construct: 6x-histidine tag (C); made in house; host or cells: HEK293
Description: The ThermoFluor® (TF) assay is a 384-well plate-based binding assay that measures thermal stability of proteins (Biomol Screen 2001, 6, 429-40; Biochemistry 2005, 44, 5258-66). The experiments were carried out using instruments available from Johnson & Johnson Pharmaceutical Research & Development, LLC. TF dye used in all experiments was […] (1,8-ANS) (Invitrogen: A-47).
Compounds were arranged in a pre-dispensed plate (Greiner Bio-one: 781280), wherein compounds were serially diluted in 100% DMSO across 11 columns within a series. Columns 12 and 24 were used as DMSO reference and contained no compound. For multiple compound concentration-response experiments, the compound aliquots ([…]) were robotically predispensed directly into black 384-well polypropylene PCR microplates (Abgene: TF-0384/k) using a Cartesian Hummingbird liquid handler (DigiLab, Holliston, Mass.). Following compound dispense, protein and dye solutions were added to achieve the final assay volume of 3 μL. The assay solutions were overlayed with 1 μL of silicone oil (Fluka, type DC 200: 85411) to prevent evaporation.
(§1) Assay plates were robotically loaded onto a thermostatically controlled PCR-type thermal block and then heated from 40 to 90° C. at a ramp-rate of 1° C./min for all experiments. Fluorescence was measured by continuous illumination with UV light (Hamamatsu LC6) supplied via fiber optics and filtered through a band-pass filter (380-400 nm; >6 OD cutoff). Fluorescence emission of the entire 384-well plate was detected by measuring light intensity using a CCD camera (Sensys, Roper Scientific) filtered to detect 500±25 nm, resulting in simultaneous and independent readings of all 384 wells. A single image with 20-sec exposure time was collected at each temperature, and the sum of the pixel intensity in a given area of the assay plate was recorded vs temperature and fit to standard equations to yield the Tm (J Biomol Screen 2001, 6, 429-40).
(§2) Thermodynamic parameters necessary for fitting compound binding for each proMMP were estimated by differential scanning calorimetry (DSC) and from ThermoFluor® data. The heat capacity of unfolding for each protein was estimated from the molecular weight and from ThermoFluor® dosing data.
The proMMP13(1-268) (SEQ ID NO:7) protein sample preparations included a desalting buffer exchange step via a PD-10 gravity column (GE Healthcare). The desalting buffer exchange was performed prior to diluting the protein to the final assay concentration of 3.5 μM. The concentration of proMMP13(1-268) (SEQ ID NO:7) was estimated spectrophotometrically based on a calculated extinction coefficient of ε280=37000 M^−1 cm^−1, a calculated molecular weight of 30.8 kDa, and calculated pI of 5.33. ThermoFluor® reference conditions were defined as follows: 100 μg/mL proMMP13(1-268) (SEQ ID NO:7), 25 μM 1,8-ANS, pH 7.0 Buffer (50 mM HEPES pH 7.0, 100 mM NaCl, 0.001% Tween-20, 2.5 mM MgCl2, 300 μM CaCl2). The thermodynamic parameters for proMMP13(1-268) (SEQ ID NO:7) are as follows: Tm (° C.)=67 (+/−0.1), ΔUH(Tm) (cal mol^−1)=107000(+/−5000), ΔUS(Tm) (cal mol^−1 K^−1)=318, ΔUCp (cal mol^−1 K^−1)=2600.

[2] = biological target: T2, proMMP9(20-445;ΔFnII) (SEQ ID NO:6) (Homo sapiens, UniProt P14780, DEL216-390); assay: ThermoFluor binding assay with proMMP9(20-445;ΔFnII)
T2 construct: amino acid pairs including: 29-215/391-444, 67-215/391-444, and 20-215/391-445, respectively; start methionine (N); made in house; host or cells: E. coli BL21(DE3) RIL
T2 sequence (P14780 with tags, fused parts or gaps DEL216-390): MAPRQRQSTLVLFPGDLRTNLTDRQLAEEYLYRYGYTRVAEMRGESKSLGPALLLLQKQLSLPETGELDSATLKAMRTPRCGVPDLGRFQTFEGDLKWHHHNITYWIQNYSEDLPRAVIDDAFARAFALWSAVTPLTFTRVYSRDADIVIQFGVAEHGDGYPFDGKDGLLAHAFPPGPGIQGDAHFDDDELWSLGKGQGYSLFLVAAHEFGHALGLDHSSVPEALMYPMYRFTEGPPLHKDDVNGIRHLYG
Description: (§3) The experiments were carried out using instruments available from Johnson & Johnson Pharmaceutical Research & Development, LLC. TF dye used in all experiments was […] (1,8-ANS) (Invitrogen: A-47).
(§4) Columns 12 and 24 were used as DMSO reference and contained no compound. […] Following compound dispense, protein and dye solutions were added to achieve the final assay volume of 3 μL.
as §1, with “wells.” for “wells. A single image with 20-sec exposure time was collected at each temperature, and the sum of the pixel intensity in a given area of the assay plate was recorded vs temperature and fit to standard equations to yield the Tm (J Biomol Screen 2001, 6, 429-40).”
as §2
The protein sample preparations included a desalting buffer exchange step via a PD-10 gravity column (GE Healthcare).

[3] = biological target: T3, full-length proMMP9(1-707) activation by catalytic MMP3 (Homo sapiens, UniProt P14780, R574P); assay: proMMP9/MMP3 P126 Activation Assay; type: biochemical; parameters: made in house; host or cells: E. coli (MMP3); conditions: proMMP9 from HEK293 cells
Description: The assay buffer employed was 50 mM Hepes, pH 7.5, 10 mM CaCl2, 0.05% Brij-35. DMSO was included at a final concentration of 2%, arising from the test compound addition. […] The reaction volume was 50 μL. […] Initial velocities were plotted by use of a four-parameter logistics equation (GraphPad Prism® software) for determination of IC50.

[4] = biological target: T4, proMMP9(67-444;ΔFnII) (SEQ ID NO:5) (Homo sapiens, UniProt P14780, DEL216-390); assay: ThermoFluor binding assay with proMMP9(67-444;ΔFnII)
T4 construct: amino acid pairs including: 29-215/391-444, 67-215/391-444, and 20-215/391-445, respectively; start methionine (N); made in house; host or cells: E. coli BL21(DE3) RIL
T4 sequence (P14780 with tags, fused parts or gaps DEL216-390): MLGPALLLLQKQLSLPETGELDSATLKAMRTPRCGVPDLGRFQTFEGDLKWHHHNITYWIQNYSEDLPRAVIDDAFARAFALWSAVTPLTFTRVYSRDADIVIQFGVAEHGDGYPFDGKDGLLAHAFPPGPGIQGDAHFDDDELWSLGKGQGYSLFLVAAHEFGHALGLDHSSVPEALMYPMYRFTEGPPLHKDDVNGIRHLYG
Description: as §3, §4
as §1, with “wells.” for “wells. A single image with 20-sec exposure time was collected at each temperature, and the sum of the pixel intensity in a given area of the assay plate was recorded vs temperature and fit to standard equations to yield the Tm (J Biomol Screen 2001, 6, 429-40).”
as §2
The protein sample preparations had to include a desalting buffer exchange step via a PD-10 gravity column (GE Healthcare).

[5] = biological target: T3, full-length proMMP9(1-707) activation by catalytic MMP3; assay: ProMMP9/MMP3 DQ Gelatin Activation Assay;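 note: readout is fluorescence of quenched fluorescein gelatin cut by activated MMP9, 30 min activation at 37 °C, inhibition relative to DMSO-only controls with EDTA as blank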; type: biochemical; parameters: made in house; host or cells: COS-1 (proMMP9); E. coli (MMP3); conditions: proMMP9 from COS-1 cells; read-out: ProMMP9/MMP3 DQ gel, IC50
Description: Compounds were assessed for inhibition of proMMP9 activation by catalytic MMP3 using a quenched fluorescein gelatin substrate (DQ gelatin, Invitrogen D12054) that fluoresces upon cleavage by activated MMP9. The assay buffer employed was 50 mM Hepes, pH 7.5, 10 mM CaCl2, 0.05% Brij-35. DMSO was included at a final concentration of 0.2%, arising from the test compound addition. […] Test compounds in DMSO were diluted 250-fold in assay buffer at 4× the final concentration. The reaction volume was 12 μL, and all reactions were conducted in triplicate. […] The plate was sealed and incubated for 30 min at 37° C. […] Immediately following the 30 min incubation, 4 μL of 40 μg/ml DQ gelatin substrate was added (freshly diluted in assay buffer), and incubated for 10 min at room temperature. […] Reactivity of residual MMP3 towards DQ gelatin was minimal under these conditions. Percent inhibition of test compounds were determined from suitable positive (DMSO only in assay buffer) and negative (EDTA added prior to reaction initiation) controls. Plots of % inhibition vs. test compound concentration were fit to a four-parameter logistics equation (GraphPad Prism® software) for determination of IC50.

T3 sequence (P14780 20-707 R574P): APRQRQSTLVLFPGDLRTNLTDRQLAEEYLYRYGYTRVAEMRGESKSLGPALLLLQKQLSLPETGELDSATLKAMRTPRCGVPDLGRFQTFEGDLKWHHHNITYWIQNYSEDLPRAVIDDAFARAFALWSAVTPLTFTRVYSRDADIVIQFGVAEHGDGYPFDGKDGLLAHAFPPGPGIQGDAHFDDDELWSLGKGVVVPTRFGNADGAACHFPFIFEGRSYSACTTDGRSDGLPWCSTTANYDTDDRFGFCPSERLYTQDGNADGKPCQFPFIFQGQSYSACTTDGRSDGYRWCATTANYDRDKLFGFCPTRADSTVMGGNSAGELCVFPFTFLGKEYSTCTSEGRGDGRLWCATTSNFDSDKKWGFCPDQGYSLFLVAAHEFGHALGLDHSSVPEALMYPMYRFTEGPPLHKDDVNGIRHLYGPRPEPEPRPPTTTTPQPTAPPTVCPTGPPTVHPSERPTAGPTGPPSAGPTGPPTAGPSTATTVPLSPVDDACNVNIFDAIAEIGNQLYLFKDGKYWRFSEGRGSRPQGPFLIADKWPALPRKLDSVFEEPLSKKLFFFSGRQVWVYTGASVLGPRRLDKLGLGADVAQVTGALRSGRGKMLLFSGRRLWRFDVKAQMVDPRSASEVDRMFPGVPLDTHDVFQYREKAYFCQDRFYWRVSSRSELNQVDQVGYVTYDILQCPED

Kd [1] | Kd [2] | IC50 [3] | Kd [4] | IC50 [5] | Structure (SMILES)
14.1 µM | 8.68 µM | 2.5 µM | 1.29 µM |  | CC(=O)Nc1nc(C)c(-c2csc(Nc3ccccc3OC(C)C)n2)s1 [Example 1, N-[2-(2-Isopropoxy-phenylamino)-4′-methyl-[4,5′]bithiazolyl-2′-yl]-acetamide]
42.5 µM | > 95 µM | 2.5 µM | 55.3 µM |  | Cc1nc(C)c(-c2csc(Nc3ccccc3OC(C)C)n2)s1 [Example 2, (2′,4′-Dimethyl-[4,5′]bithiazolyl-2-yl)-(2-isopropoxy-phenyl)-amine]
 | 3.81 µM | 2 µM | 1.15 µM |  | Cc1nc(N)sc1-c1csc(Nc2ccccc2OC(C)C)n1 [Example 3, N^2-(2-Isopropoxy-phenyl)-4′-methyl-[4,5′]bithiazolyl-2,2′-diamine.TFA]
20 µM | > 95 µM | 0.71 µM | 5.49 µM |  | COc1ccc(F)cc1Nc1nc(-c2sc(C)nc2C)cs1 [Example 5, (2′,4′-Dimethyl-[4,5′]bithiazolyl-2-yl)-(5-fluoro-2-methoxy-phenyl)-amine.HBr]
15.1 µM | 0.907 µM | 0.65 µM | 0.156 µM |  | COc1ccc(F)cc1Nc1nc(-c2sc(NC(C)=O)nc2C)cs1 [Example 6]
9.12 µM | > 95 µM | 3.6 µM |  |  | Cc1nc(C)c(-c2csc(Nc3ccccc3OC(F)(F)F)n2)s1 [Example 14, (2′,4′-Dimethyl-[4,5′]bithiazolyl-2-yl)-(2-trifluoromethoxy-phenyl)-amine]
 | > 95 µM | 2.5 µM | 43.3 µM |  | CC(C)Oc1ccccc1Nc1nc(-c2cccnc2)cs1 [Example 15, (2-Isopropoxy-phenyl)-(4-pyridin-3-yl-thiazol-2-yl)-amine]
 | 2.89 µM | 2.6 µM | 0.376 µM |  | COc1ccc(F)cc1Nc1nc(-c2sc(NC(C)=O)nc2C)c(Br)s1 [Example 18, N-[5-Bromo-2-(5-fluoro-2-methoxy-phenylamino)-4′-methyl-[4,5′]bithiazolyl-2′-yl]-acetamide.TFA]
 | 2.15 µM | 3.3 µM | 0.414 µM |  | COc1ccc(Br)cc1Nc1nc(-c2sc(N)nc2C)cs1 [Example 20, N^2-(5-Bromo-2-methoxy-phenyl)-4′-methyl-[4,5′]bithiazolyl-2,2′-diamine.TFA]
 | 49.9 µM | 3.1 µM |  |  | COc1ccc(Br)cc1Nc1nc(-c2sc(C)nc2C)cs1 [Example 27, (5-Bromo-2-methoxy-phenyl)-(2′,4′-dimethyl-[4,5′]bithiazolyl-2-yl)-amine.TFA]
 | 1.94 µM | 1.9 µM |  |  | COc1ccc(F)cc1Nc1nc(-c2ccc3c(c2)ncn3C)cs1 [Example 41, (5-Fluoro-2-methoxy-phenyl)-[4-(1-methyl-1H-benzoimidazol-5-yl)-thiazol-2-yl]-amine]
5.35 µM | 28.8 µM | 5 µM |  |  | COc1ccc(F)cc1Nc1nc(-c2c(C)nc(C)n2C)cs1 [Example 42, (5-Fluoro-2-methoxy-phenyl)-[4-(2,3,5-trimethyl-3H-imidazol-4-yl)-thiazol-2-yl]-amine]
> 95 µM | 47.5 µM |  | 45.3 µM | 2.1 µM | COc1ccccc1Nc1nc(-c2sc(C)nc2C)cs1 [Example 64, (2′-4′-Dimethyl-[4,5′]bithiazolyl-2-yl)-(2-methoxy-phenyl)-amine]
18 µM | 25.5 µM |  | 15.9 µM | 17.9 µM | COc1ccc(OC)c(Nc2nc(-c3c[nH]c4ncccc34)cs2)c1 [Example 73, (2,5-Dimethoxy-phenyl)-[4-(1H-pyrrolo[2,3-b]pyridin-3-yl)-thiazol-2-yl]-amine]
> 95 µM | 7.89 µM |  | 66.1 µM | 21.1 µM | CCOc1ccccc1Nc1nc(-c2cn3ccccc3n2)cs1 [Example 74, (2-Ethoxy-phenyl)-(4-imidazo[1,2-a]pyridin-2-yl-thiazol-2-yl)-amine]
28.9 µM | 17.9 µM |  | 10.1 µM | 17.9 µM | COc1ccccc1Nc1nc(-c2cnc3cnccn23)cs1 [Example 75, (4-Imidazo[1,2-a]pyrazin-3-yl-thiazol-2-yl)-(2-methoxy-phenyl)-amine]
57.1 µM | 27 µM |  | 10.8 µM | 16.3 µM | COc1ccccc1Nc1nc(-c2c[nH]c3ncccc23)cs1 [Example 76, (2-Methoxy-phenyl)-[4-(1H-pyrrolo[2,3-b]pyridin-3-yl)-thiazol-2-yl]-amine]
 | > 77 µM | 3.8 µM | 20.6 µM |  | COc1ccc(F)cc1Nc1nc(-c2sc(C)nc2C)c(C)s1 [Example 77, N-(5-fluoro-2-methoxyphenyl)-2′,4′,5-trimethyl-[4,5′-bithiazol]-2-amine.HBr]
 | 0.879 µM | 0.13 µM | 0.146 µM |  | COc1ccc(F)cc1Nc1nc(-c2sc(C3CCN(C)CC3)nc2C)cs1 [Example 78, N-(5-fluoro-2-methoxyphenyl)-4′-methyl-2′-(1-methylpiperidin-4-yl)-[4,5′-bithiazol]-2-amine.TFA]
 | 21.4 µM | 1 µM | 3.93 µM |  | COc1ccc(F)cc1Nc1nc(-c2ccc(N3CCN(C4CC4)CC3)nc2)cs1 [Example 79, 4-(6-(4-Cyclopropylpiperazin-1-yl)pyridin-3-yl)-N-(5-fluoro-2-methoxyphenyl)thiazol-2-amine.TFA]
